One compound from article PMC10398685 (ACS Omega, 2023) can be followed below.

Some results are limits rather than exact numbers.

Series [1] is described as follows: Steady-state intracellular uptake in CCRF-CEM cells. In kind it is in vitro ADME. To be noted: human, CCRF-CEM cells, 60 min incubation, 50 μM at t = 0, read-out: Kp (intracellular accumulation ratio IC/EC). From the text: (§1) While an enzymatic MTase assay represents a valuable fast screening platform providing the information that can be directly used for SAR analyses, it is not fully predictive for the compounds’ activity in whole cells. In order to verify the ability of the compounds to reach the intracellular compartment, we measured the steady-state accumulation of representative compounds in intact CCRF-CEM, VERO-E6, and Calu-3 cells (Tables 3 and S2). […] Compound 12q was almost completely cleared from the medium after 60 min incubation with the cells rendering it among the most permeable compounds of the series based on Kp values. It should be noted that the apparent intracellular concentration of the compounds may be biased by their potential metabolism. Therefore, we decided to subject the selected derivatives to in vitro stability studies. […]
(§2) 3.3. Intracellular Uptake
(§3) Steady-state cellular uptake was measured in CCRF-CEM cells (ATCC, CRL-119), VERO-E6 cells (ATCC, CRL-1586) and Calu-3 cells (HTB-55), respectively. Suspension cells (CCRF-CEM) were treated as follows: Prior to the experiment, cells were washed by centrifugation (250 x g, 5 min) in prewarmed (37 °C) serum-free RPMI medium and resuspended in the same vehicle to a concentration of 2 x 10^7 cells per mL. The cell suspension was distributed into the microtubes in 500 μL aliquots (10^7 cells), and the uptake process was initiated by the addition of 2.5 μL of the 10 mM DMSO solutions of the compounds (50 μM final conc.). Samples were incubated for 60 min at 37 °C in a CO 2 incubator using a rotary stirrer. The uptake was terminated by centrifugation at 900 x g for 5 min, at +4 °C. The medium was stored at −20 °C for later analysis of the extracellular concentration of the compounds. The cells were washed two times with 1 mL PBS (900 x g, 5 min, +4 °C), and also stored at −20 °C for subsequent analysis of the intracellular concentration of the compounds. At the day of the analysis, both media and the pelleted cells were quickly thawed. The cell pellets were extracted with 200 μL of ice-cold methanol by vigorous shaking, further diluted 1:1 with water and centrifuged at 20 000 x g for 10 min. As for the media samples, 10 μL aliquots were extracted with 990 μL of 50% methanol. The samples were then transferred to ECHO® -compatible 384-well plates and the amount of analytes were quantified by the ECHO -MS® System (Sciex) where acoustic droplet ejection module is coupled with Sciex 6500® triple quadrupole mass spectrometer operating with an electrospray ionization source. Spectrometer was run in the multiple reaction monitoring (MRM) mode. When necessary, the processed samples were further diluted in 50% methanol to fit in the calibration range. Calibration curves of the compounds in 50% methanol were measured alongside the samples within the same run. The ra tio between the total compound concentration in the cells and compound concentration in the medium (K p) at t=60 min was calculated according to: Kp = (Acell / Vcell) / Cmedium, where Acell is the amount of compound in the cell lysate, Vcell is the CCRF-CEM cell volume (3.38 μL/10^7 cells)16 and Cmedium is the compound concentration in the medium sample after correcting for sample dilution. Experiments were performed in duplicates. […]

A further series deals with CCRF-CEM cells. The description is as above. To be noted: 60 min incubation, 50 μM at t = 0. In kind it is in vitro ADME.
Text: as §1, §2, §3

The nature of another series: in vitro. To be noted: human.
Series [2] in a line: Microsomal stability, mouse. In kind it is in vitro ADME. To be noted: triplicates.
The next series in a line: Plasma stability, mouse. In kind it is in vitro ADME. To be noted: 5uM, triplicates.
The next series has as its system VERO-E6 cells. In words: Steady-state intracellular uptake in VERO-E6 cells. In kind it is in vitro ADME. To be noted: VERO-E6, 60 min incubation, 50 μM at t = 0.
Text: as §1, §2
(§4) Steady-state cellular uptake was measured in CCRF-CEM cells (ATCC, CRL-119), VERO-E6 cells (ATCC, CRL-1586) and Calu-3 cells (HTB-55), respectively. […]
(§5) The medium was stored at −20 °C […]
(§6) for later analysis of the extracellular concentration of the compounds. The cells were washed two times with 1 mL PBS (900 x g, 5 min, +4 °C), and also stored at −20 °C for subsequent analysis of the intracellular concentration of the compounds. At the day of the analysis, both media and the pelleted cells were quickly thawed. The cell pellets were extracted with 200 μL of ice-cold methanol by vigorous shaking, further diluted 1:1 with water and centrifuged at 20 000 x g for 10 min. As for the media samples, 10 μL aliquots were extracted with 990 μL of 50% methanol. The samples were then transferred to ECHO® -compatible 384-well plates and the amount of analytes were quantified by the ECHO -MS® System (Sciex) where acoustic droplet ejection module is coupled with Sciex 6500® triple quadrupole mass spectrometer operating with an electrospray ionization source. Spectrometer was run in the multiple reaction monitoring (MRM) mode. When necessary, the processed samples were further diluted in 50% methanol to fit in the calibration range. Calibration curves of the compounds in 50% methanol were measured alongside the samples within the same run. The ra tio between the total compound concentration in the cells and compound concentration in the medium (K p) at t=60 min was calculated according to: Kp = (Acell / Vcell) / Cmedium, where Acell is the amount of compound in the cell lysate, Vcell is the CCRF-CEM cell volume (3.38 μL/10^7 cells)16 and Cmedium is the compound concentration in the medium sample after correcting for sample dilution. Experiments were performed in duplicates.
(§7) For adherent cells (Vero E6 and Calu-3), the workflow was modified as follows: Cells were seeded on 6-well plates at a concentration of […] and 8.2 x 10^5 cells/well for Vero E6 and Calu-3, respectively, in 3 mL of serum-free culture media. The cells were left to attach overnight, the medium was then aspirated and replenished with 2 mL of fresh media containing the compounds (50 µM final conc). After 60 min at 37 °C the media was aspirated and the cells were washed twice with 1 mL of PBS. Then, 1 mL of fresh PBS was added and the cells were subjected to three freeze-thaw cycles and further diluted with 1:1 with MeOH. The cell lysates and the media were further processed as described above. Intracellular volume of Vero E6 and Calu-3 cells (8.6 and 14 μL/107 cells, respectively) was calculated from their diameter determined by cell counter (Luna FL) while in suspension (following the trypsinization) assuming the homogenous spheres.

The nature of series [3]: Steady-state intracellular uptake in VERO-E6 cells. The format is in vitro ADME. To be noted: African green monkey, VERO-E6 cells; VERO-E6, 60 min incubation, 50 μM at t = 0; read-out: Kp (intracellular accumulation ratio IC/EC).
Text: as §1, §2, §4, §5, §6, §7

For a further series, the system named is SARS-CoV-2. In words: microbe, parasite or virus in culture. In kind it is cell-based. To be noted: Severe acute respiratory syndrome coronavirus 2, Vero C1008, 72 h; VeroE6 cells, MOI~0.03, 3 days incubation, CPE by XTT; read-out: EC50 (anti-SARS-CoV-2 activity). In general terms: Tetrazolium dyes change colour on reduction, which living cells bring about.

`CCN(C[C@H]1O[C@@H](n2cc(C#Cc3ccc(C(N)=O)cc3)c3c(N)ncnc32)[C@H](O)[C@@H]1O)S(=O)(=O)c1ccc(OC)c(C#N)c1` [Compound 12o]: the Kp at 1 h, 50 µM in series [1] turned out to be 694; in series [3] it was 247. Further, the figures for the “EC (extracellular concentration in the media at t = 60 min) ± sd” value in the series with CCRF-CEM cells and in the series on VERO-E6 cells were 13 ± 3 µM and 20.9 ± 0.8 µM, respectively. Also, in the series “in vitro”, the CC50 at 3 days was more than 100 µM. In series [2] (0.5 mg/ml mouse microsomes, 5uM), the “Microsomal stability Rem. at 45 min” value was 65.9 ± 3.2%. Also, the microsomal CLint (usually a measure of how fast metabolising enzymes remove a compound, apart from limits set by blood flow) at 5 µM in series [2] (pH 7.4, 0.5 mg/ml mouse microsomes) came out at 19.2 ± 1.7 µL/min/mg. Moreover, the half-life at 5 µM in series [2] (pH 7.4, 0.5 mg/ml mouse microsomes, read-out: Microsomal stability T1/2) is 1.25 ± 0.125 h. Further, the “Plasma stability Rem. at 120 min” value in the series “Plasma stability, mouse” is recorded as 115.4 ± 3.7%. Moreover, the “Plasma stability T1/2” value in “Plasma stability, mouse” is listed as “Stable”. For the same compound, the EC50 (commonly the concentration giving half of the maximal effect) in the series on SARS-CoV-2 was more than 100 µM.
